This is an account of results in ChEMBL document CHEMBL1151887 (Bioorg Med Chem, 2009).

In experiment [1] the target is T1, Adenosine receptor A2a (Homo sapiens, UniProt P29274). Nature of the experiment: Displacement of [3H]CGS21680 from human recombinant adenosine A2a receptor expressed in HEK293 cells by liquid scintillation counting. It is filed as cell-based.
Experiment [2] deals with T2, Adenosine receptor A1 (Homo sapiens) (UniProt P30542).
T2 sequence (whole entry): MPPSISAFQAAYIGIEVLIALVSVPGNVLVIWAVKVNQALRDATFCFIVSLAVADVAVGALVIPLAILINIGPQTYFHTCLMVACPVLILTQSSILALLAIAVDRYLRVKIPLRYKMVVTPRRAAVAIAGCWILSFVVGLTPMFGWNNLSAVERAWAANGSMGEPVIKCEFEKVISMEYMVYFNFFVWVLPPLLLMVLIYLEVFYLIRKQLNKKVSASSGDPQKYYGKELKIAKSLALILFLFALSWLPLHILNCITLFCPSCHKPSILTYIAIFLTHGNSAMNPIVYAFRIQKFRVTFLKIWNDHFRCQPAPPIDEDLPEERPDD
Kind of experiment: Displacement of [3H]NECA from human recombinant adenosine A1 receptor expressed in CHO cells at 10 uM by liquid scintillation counting. In kind it is cell-based.

Experiment [3] deals with T3, Adenosine receptor A3 (Homo sapiens, UniProt P0DMS8).
T3 sequence (P0DMS8 whole entry): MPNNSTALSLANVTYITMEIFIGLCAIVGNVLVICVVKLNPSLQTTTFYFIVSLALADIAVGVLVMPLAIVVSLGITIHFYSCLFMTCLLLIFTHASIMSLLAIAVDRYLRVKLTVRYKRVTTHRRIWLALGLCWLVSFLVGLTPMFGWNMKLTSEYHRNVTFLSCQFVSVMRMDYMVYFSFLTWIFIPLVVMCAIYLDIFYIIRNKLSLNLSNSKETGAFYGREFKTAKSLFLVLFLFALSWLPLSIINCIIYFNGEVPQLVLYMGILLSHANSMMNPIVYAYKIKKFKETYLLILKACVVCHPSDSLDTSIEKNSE
Nature of the experiment: Displacement of [125I]I-AB-MECA from human recombinant adenosine A3 receptor expressed in CHO cells by liquid scintillation counting.

The target in experiment [4] is T1, Adenosine receptor A2a. Kind of experiment: Displacement of [3H]CGS21680 from human recombinant adenosine A2a receptor expressed in HEK293 cells at 10 uM by liquid scintillation counting. In kind it is cell-based.
The target in experiment [5] is T4, Adenosine receptor A3 (Rattus norvegicus, UniProt P28647).
T4 sequence (P28647 whole entry): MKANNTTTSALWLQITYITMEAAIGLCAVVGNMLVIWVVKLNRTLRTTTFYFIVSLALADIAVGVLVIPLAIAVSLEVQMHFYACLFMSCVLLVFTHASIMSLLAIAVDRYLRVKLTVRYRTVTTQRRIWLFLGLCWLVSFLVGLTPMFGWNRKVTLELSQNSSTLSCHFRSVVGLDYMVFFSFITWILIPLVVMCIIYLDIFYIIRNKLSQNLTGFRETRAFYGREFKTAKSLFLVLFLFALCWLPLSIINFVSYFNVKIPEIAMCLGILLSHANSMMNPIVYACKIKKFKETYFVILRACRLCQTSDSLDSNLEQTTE
Kind of experiment: Binding affinity to rat adenosine A3 receptor.

Structures are written as SMILES.

T1 sequence (P29274 whole entry): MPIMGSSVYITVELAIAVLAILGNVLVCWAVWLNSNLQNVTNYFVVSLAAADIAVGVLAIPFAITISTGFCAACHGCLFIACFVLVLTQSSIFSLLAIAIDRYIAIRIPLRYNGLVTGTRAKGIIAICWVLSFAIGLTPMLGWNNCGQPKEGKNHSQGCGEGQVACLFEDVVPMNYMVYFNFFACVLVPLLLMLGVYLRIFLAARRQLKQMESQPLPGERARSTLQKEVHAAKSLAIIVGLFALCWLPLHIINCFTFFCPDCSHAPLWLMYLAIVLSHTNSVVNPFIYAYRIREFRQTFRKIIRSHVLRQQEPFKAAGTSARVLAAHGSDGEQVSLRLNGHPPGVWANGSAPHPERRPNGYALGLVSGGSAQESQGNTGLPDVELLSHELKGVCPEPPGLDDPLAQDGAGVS

As to `O[C@@H]1[C@H](O)CO[C@H]1n1cnc2c(NCc3cccc(F)c3)ncnc21`, the Ki was found to be 6560 nM on Adenosine receptor A2a [1] and 537 nM on Adenosine receptor A3 [3]. Also, the inhibition in experiment [2] is 36%.
`O[C@@H]1[C@H](O)CO[C@H]1n1cnc2c(NCc3cccc(Cl)c3)nc(Cl)nc21`: the Ki at Adenosine receptor A2a [1] was 3630 nM; on Adenosine receptor A3 [3], 75 nM.
For `O[C@@H]1[C@H](O)CO[C@H]1n1cnc2c(NCc3cccc(I)c3)nc(Cl)nc21`, on Adenosine receptor A2a [4], the inhibition was determined as 43%.
Turning to `CNc1ncnc2c1ncn2[C@@H]1OC[C@@H](O)[C@H]1O`, the inhibition on Adenosine receptor A2a [4] came out at 25%; in experiment [2], 44%. Besides, the Ki at Adenosine receptor A3 [3] amounted to 70.1 nM.
Turning to `O[C@@H]1[C@H](O)CO[C@H]1n1cnc2c(NCc3cccc(Br)c3)ncnc21`, the Ki is 1400 nM at Adenosine receptor A2a [1] and 59 nM on Adenosine receptor A3 [3].
With `O[C@@H]1[C@H](O)CO[C@H]1n1cnc2c(NCc3cccc(Br)c3)nc(Cl)nc21`, at Adenosine receptor A2a [4], the inhibition is 30%. At Adenosine receptor A3 [5], the affinity corresponds to a Ki of 82.8 nM.
In the case of `O[C@@H]1[C@H](O)CO[C@H]1n1cnc2c(NCc3cccc(F)c3)nc(Cl)nc21`, the inhibition at Adenosine receptor A2a [4] came to 42%; in experiment [2] it was 43%. Moreover, at Adenosine receptor A3 [3], the inhibitory constant (Ki) turned out to be 284 nM.
Regarding `O[C@@H]1[C@H](O)CO[C@H]1n1cnc2c(NCc3cccc(Cl)c3)ncnc21`, the values for the Ki at Adenosine receptor A2a [1] and on Adenosine receptor A3 [3] were 3410 nM and 76.1 nM, respectively.
The corresponding values for `O[C@@H]1[C@H](O)CO[C@H]1n1cnc2c(NCc3cccc(I)c3)ncnc21` are 997 nM and 90.2 nM.
Regarding `CNc1nc(Cl)nc2c1ncn2[C@@H]1OC[C@@H](O)[C@H]1O`, the inhibition at Adenosine receptor A2a [4] was determined as 15%; in experiment [2] it was 49%. In addition, the Ki on Adenosine receptor A3 [3] was determined as 37.5 nM.
